Measured values as given in patent US10087156B2, “Methods and compositions related to retinoid receptor-selective pathway” (Sanford Burnham Prebys Medical Discovery Institute, priority 2010, dated 2018).
Entries after “also recorded” stand apart in the source; their conditions may differ.

Columns and labels:
[1] = target: T1, interaction of p85α with RXRα/Δ80 (Homo sapiens, UniProt P19793); test: Co-immunoprecipitation of Flag-p85α and Myc-RXRα/Δ80 in A549 cells; type: cell-based; conditions: 50 μM, with or without TNFα
T1 construct: expressed in transfected cells; host or cells: A549 human lung cancer cells
T1 sequence (P19793 81-462 limits assumed, stated change not applied): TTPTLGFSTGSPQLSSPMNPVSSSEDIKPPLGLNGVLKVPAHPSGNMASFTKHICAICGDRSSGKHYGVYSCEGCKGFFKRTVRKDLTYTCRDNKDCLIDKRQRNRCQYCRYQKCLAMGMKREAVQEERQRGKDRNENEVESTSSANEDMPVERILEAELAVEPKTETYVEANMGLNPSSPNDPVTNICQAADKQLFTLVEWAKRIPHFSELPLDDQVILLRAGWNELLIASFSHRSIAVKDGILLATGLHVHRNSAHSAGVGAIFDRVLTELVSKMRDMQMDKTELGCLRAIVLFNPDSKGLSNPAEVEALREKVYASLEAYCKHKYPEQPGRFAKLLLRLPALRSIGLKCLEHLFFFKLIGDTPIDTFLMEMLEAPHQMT
Protocol: Caco-2 and MEF cells were treated with the indicated concentration of Sulindac or K-80003 for 30 min, then stimulated with all-trans-RA (10^-7 M) for 15 min. AKT activation was analyzed by immunoblotting. PC3 cells transfected with RXRα or RARγ siRNA were pre-treated with K-80003 (50 μM) for 1 hr before exposed to TNFα (10 ng/ml) for 30 min (pRXRα: phosphorylated RXRα). A549 cells were transfected with Flag-p85α and Myc-RXRα/[…], treated with Sulindac (50 μM) or K-80003 (50 μM) for 1 hr, exposed to TNFα for 30 min, and analyzed by coimmunoprecipitation using an anti-Flag antibody. […] (FIG. 8C). Reducing RXRα expression by siRNA largely impaired the inhibitory effect of K-80003 on AKT activation in PC3 cells. […] Thus, inhibition of AKT activation by K-80003 was also dependent on RXRα expression (FIG. 8B). For the CoIP assay, cells or cells transfected with indicated expression vectors were suspended in lysis buffer (50 mM Tris-HCl, pH 7.4; 150 mM NaCl; 20 mM EDTA; 1% NP-40; 1 mM PMSF; […] Leupeptin; […] Aprotinin; 0.1 mM Na3VO4; and 1 mM DTT). […] Immunoreactive products were detected by chemiluminescence with an enhanced chemiluminescence system (ECLTM) (Amersham Biosciences, Amersham, UK).

ZR-75-1 cells = test: PARP cleavage with TNFα by immunoblotting; type: cell-based, human; conditions: K-80003 50 μM, Sulindac 75 μM, 6 hr
Protocol: ZR-75-1 cells were treated with TNFα and/or Sulindac (75 μM) or K-80003 (50 μM) for 6 hr and analyzed by immunoblotting.

cancer = test: Preventing cancer in a human patient; type: in vivo; conditions: 150 mg tablet twice daily
Protocol: A human patient with an elevated risk of developing cancer relative to the general population is identified and instructed to take a 150 mg tablet containing the active ingredient K-80003 twice daily.

RXRα/TRα heterodimers = target: T2, RXRα/TRα heterodimers (Homo sapiens, UniProt P19793); test: TREpal2-tk-CAT reporter assay in CV-1 cells; type: cell-based; conditions: T3 10^−7 M
T2 construct: expressed in transfected cells; host or cells: CV-1 green monkey kidney cells
T2 sequence (P19793 whole entry): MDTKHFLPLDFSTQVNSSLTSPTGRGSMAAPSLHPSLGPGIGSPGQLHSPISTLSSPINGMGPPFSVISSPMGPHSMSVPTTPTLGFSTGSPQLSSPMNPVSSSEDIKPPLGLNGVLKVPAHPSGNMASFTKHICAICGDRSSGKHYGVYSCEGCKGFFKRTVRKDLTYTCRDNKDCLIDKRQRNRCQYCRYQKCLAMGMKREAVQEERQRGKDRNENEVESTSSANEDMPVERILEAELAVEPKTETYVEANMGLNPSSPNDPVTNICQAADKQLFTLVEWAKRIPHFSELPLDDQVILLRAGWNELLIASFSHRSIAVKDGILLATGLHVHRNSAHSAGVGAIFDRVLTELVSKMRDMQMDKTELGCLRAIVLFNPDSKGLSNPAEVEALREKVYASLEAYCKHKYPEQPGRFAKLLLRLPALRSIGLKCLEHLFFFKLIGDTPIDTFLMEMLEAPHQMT
T2 sequence (P10827 1-410 isoform P10827-2 partner): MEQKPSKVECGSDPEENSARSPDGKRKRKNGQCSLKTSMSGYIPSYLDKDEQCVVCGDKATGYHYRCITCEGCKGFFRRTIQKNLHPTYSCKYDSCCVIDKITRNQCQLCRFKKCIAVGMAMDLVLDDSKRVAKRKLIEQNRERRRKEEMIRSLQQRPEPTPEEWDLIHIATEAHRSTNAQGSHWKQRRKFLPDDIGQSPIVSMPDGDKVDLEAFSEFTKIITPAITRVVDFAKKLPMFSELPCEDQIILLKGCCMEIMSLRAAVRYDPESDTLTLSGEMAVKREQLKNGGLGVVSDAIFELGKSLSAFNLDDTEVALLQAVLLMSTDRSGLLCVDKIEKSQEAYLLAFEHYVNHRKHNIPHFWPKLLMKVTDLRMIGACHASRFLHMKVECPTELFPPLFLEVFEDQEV
Protocol: Receptor expression vectors and a reporter gene (TREpal2-tk-CAT for RXRα/TRα heterodimers (FIG. 9C), and DR1 tk-CAT for RXRα/PPARγ heterodimer (FIG. 9B)) were transiently transfected into CV-1 cells. Cells were treated with or without ligands (ciglitazone, 10^−6 M; T3, 10^−7 M) in the presence or absence of Sulindac. CAT activity was determined.
(§1) Cells (1×10^5 cells/well) seeded in 24-well plates were transiently transfected using a modified calcium phosphate precipitation procedure as described (Kolluri, S. K. et al., Proc Natl Acad Sci USA 102 (7), 2525-2530 (2005); Cao, X., et al., Mol Cell Biol 24(22), 9705-9725 (2004)).

[2] = target: T3, RXRα homodimer and heterodimer (Homo sapiens, UniProt P19793); test: (TREpal)2-tk-CAT and βRARE-tk-CAT reporter assays in CV-1 cells; type: cell-based; conditions: SR11237 10^−6 M
T3 construct: expressed in transfected cells; host or cells: CV-1 green monkey kidney cells
T3 sequence (P19793 whole entry, one chain of several): as the sequence (P19793 whole entry) above
Protocol: Nur77 and/or RXRα were transiently transfected into CV-1 cells. Cells were treated with or without SR11237 (10^−6 M), a RXR-selective agonist, in the presence or absence of Sulindac. (TREpal)2-tk-CAT (Zhang et al., Nature 358, 587-591 (1992a)) (FIG. 1E) and βRARE-tk-CAT (Zhang et al., Nature 355, 441-446 (1992b)) (FIG. 1F) CAT activity were determined.
as §1

[3] = test system: interaction of p85α with tRXRα and/or RXRα; test: Co-immunoprecipitation with ΔN197 anti-RXRα antibody; type: cell-based; conditions: TNFα-enhanced
Protocol: RXRα interaction with p85α was examined. Anti-RXRα […]antibodies (Santa Cruz Biotechnology, Santa Cruz, Calif.) were used in co-immunoprecipitation (Co-IP) and Western blotting (WB) assays. BHK cells were treated with ATRA (10^−7 M) for 30 min. Lysates were prepared and analyzed for RXRα-p85α interaction using either D20 anti-RXRα or ΔN197 anti-RXRα antibody (FIG. 12D).
For the CoIP assay, cells or cells transfected with indicated expression vectors were suspended in lysis buffer (50 mM Tris-HCl, pH 7.4; 150 mM NaCl; 20 mM EDTA; 1% NP-40; 1 mM PMSF; […] Leupeptin; […] Aprotinin; 0.1 mM Na3VO4; and 1 mM DTT). Cell extracts were cleared by incubation with the Protein A/G plus Agarose beads (Santa Cruz Biotechnology, Santa Cruz, Calif.) and then incubated with appropriate antibody and […] of Protein A or G plus Agarose beads overnight at 4° C. Beads were then washed and boiled in Laemmli gel-loading solution before performing SDS-PAGE/immunoblotting using polyclonal or monoclonal antibodies. Immunoreactive products were detected by chemiluminescence with an enhanced chemiluminescence system (ECL™) (Amersham Biosciences, Amersham, UK).

c-FLIP = c-FLIP expression by immunoblotting; type: cell-based; conditions: HepG2, A549 and SW480 cells, 6 hr
Protocol: Cells treated with TNFα and/or Sulindac for 6 hr were analyzed by immunoblotting (FIG. 6I). The expression of c-FLIP, a downstream target gene of AKT signaling, which acts as a potent inhibitor of the extrinsic apoptotic pathway by inhibiting caspase-8 activation, was examined. […] Thus, Sulindac may induce apoptosis by suppressing the inducing effect of TNFα on c-FLIP expression.

Row | Compound | inhibition of interaction of p85α with RXRα/Δ80 [1] | induction of PARP cleavage together with TNFα, compared with Sulindac (ZR-75-1 cells) | development of cancer in patient at elevated risk (cancer) | transactivation of RXR/TR heterodimers (CAT activity) (RXRα/TRα heterodimers) | RXRα homodimer and heterodimer transactivation (CAT activity) [2] | interaction of p85α with tRXRα and/or RXRα [3] | TNFα induction of c-FLIP (c-FLIPS and c-FLIPL) (c-FLIP)
1 | CC1=C(CC(=O)O)c2cc(F)ccc2/C1=C\c1ccc(C(C)C)cc1 [K-80003, (Z)-2-(3-(4-Iso-propylbenzylidene)-6-fluoro-2-methyl-3H-inden-1-yl)acetic acid] | much more effective than Sulindac; also recorded: potently inhibited | more effective than Sulindac | does not develop cancer |  |  |  | 
2 | CSc1ccc(/C=C2/C(C)=C(CC(=O)O)c3cc(F)ccc32)cc1 [Sulindac, (Z)-2-(3-(4-(Methylthio)benzylidene)-6-fluoro-2-methyl-3H-inden-1-yl)acetic acid] |  |  |  | not RXR/TR heterodimers | inhibited RXRα homodimer and heterodimer transactivation | inhibited | inhibited
